Where two headings read alike, the source gives them in different places.
Key:
[1] = target: T1, dopamine transporter (DAT) (Rattus norvegicus, UniProt P23977); test: Dopamine transporter-mediated [^3H]MPP^+ release, shift of D-amphetamine-induced release, rat caudate synaptosomes; type: biochemical; parameters: Freshly removed caudate was homogenized in 10% ice-cold sucrose; from tissue; host or cells: rat caudate synaptosomes; details: for Apparent Kc: [3H]MPP+ release, Apparent Kc = [Blocker]/((EC50-2/EC50-1) − 1), negative when shifted EC50 is less than control; for Kb: apparent Ke from shift of D-amphetamine-induced [^3H]MPP^+ release, compound at the concentration of column 1, read-out: Ke App
[2] = target: T1, dopamine transporter (DAT); test: d-Amphetamine-induced DAT-mediated [^3H]DA release; type: biochemical; parameters: Freshly removed caudate was homogenized in 10% ice-cold sucrose; from tissue; host or cells: rat caudate synaptosomes; details: Apparent Kc = [Blocker]/((EC50-2/EC50-1) − 1), negative when shifted EC50 is less than control
[3] = target: T1, dopamine transporter (DAT); test: Dopamine reuptake ([^3H]dopamine uptake) inhibition in rat brain synaptosomes
[4] = target: T2, DAT (Rattus norvegicus, UniProt P23977); test: Dopamine transporter binding, inhibition of [^3H]WIN35428 binding in rat caudate membranes; details: for EC50: read-out: WIN Binding EC50 (μM ± SD)
T2 construct: from tissue; host or cells: rat caudate membranes
How it was run: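 Rat caudate membranes in 50 mM sodium phosphate pH 7.4 with protease inhibitors, EDTA/EGTA and BSA were incubated with 1 nM [^3H]WIN35428 and test drug for 2 hours at 25° C. Filtration-retained tritium measured; three pooled experiments fit to dose-response to give Emax and EC50.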

[5] = target: T3, serotonin transporter (SERT) (Rattus norvegicus, UniProt P31652); test: Serotonin reuptake ([^3H]serotonin uptake) inhibition in rat brain synaptosomes; type: biochemical
T3 construct: Freshly removed whole brain minus cerebellum and caudate was homogenized; from tissue; host or cells: rat whole brain minus cerebellum and caudate, synaptosomes

[6] = target: T1, dopamine transporter (DAT); test: Time course of [^3H]DA uptake/accumulation; type: biochemical; parameters: Freshly removed caudate was homogenized in 10% ice-cold sucrose; from tissue; host or cells: rat caudate synaptosomes
[7] = target: norepinephrine transporter (NET) (Rattus norvegicus, UniProt Q9WTR4); test: Norepinephrine reuptake ([^3H]norepinephrine uptake) inhibition in rat brain synaptosomes; details: for NE Uptake Emax (% I ± SD): maximal inhibition from dose-response fit
[8] = Emax of D-amphetamine for [^3H]MPP^+ release in presence of 50 nM test compound
[9] = IC50 for DAT Uptake Inhibition, rounded value as listed in Table 10
[10] = read-out: Emax for DAT Uptake Inhibition
[11] = mean ± S.D., n = 3, read-out: SERT Uptake Emax
[12] = mean ± S.D., n = 3, read-out: SERT Uptake IC50
[13] = rat brain synaptosomes, 10 nM [^3H]norepinephrine
[14] = read-out: NE Uptake EC50 (nM ± SD), rat brain synaptosomes, 10 nM [^3H]norepinephrine, 10 min, 37° C.
[15] = read-out: NET Uptake IC50, mean ± S.D., n = 3
[16] = DAT Uptake IC50, [3H]DA uptake inhibition, mean ± S.D., n = 3
[17] = 2 h, read-out: DAT Binding εmax

T1 sequence (P23977 whole entry): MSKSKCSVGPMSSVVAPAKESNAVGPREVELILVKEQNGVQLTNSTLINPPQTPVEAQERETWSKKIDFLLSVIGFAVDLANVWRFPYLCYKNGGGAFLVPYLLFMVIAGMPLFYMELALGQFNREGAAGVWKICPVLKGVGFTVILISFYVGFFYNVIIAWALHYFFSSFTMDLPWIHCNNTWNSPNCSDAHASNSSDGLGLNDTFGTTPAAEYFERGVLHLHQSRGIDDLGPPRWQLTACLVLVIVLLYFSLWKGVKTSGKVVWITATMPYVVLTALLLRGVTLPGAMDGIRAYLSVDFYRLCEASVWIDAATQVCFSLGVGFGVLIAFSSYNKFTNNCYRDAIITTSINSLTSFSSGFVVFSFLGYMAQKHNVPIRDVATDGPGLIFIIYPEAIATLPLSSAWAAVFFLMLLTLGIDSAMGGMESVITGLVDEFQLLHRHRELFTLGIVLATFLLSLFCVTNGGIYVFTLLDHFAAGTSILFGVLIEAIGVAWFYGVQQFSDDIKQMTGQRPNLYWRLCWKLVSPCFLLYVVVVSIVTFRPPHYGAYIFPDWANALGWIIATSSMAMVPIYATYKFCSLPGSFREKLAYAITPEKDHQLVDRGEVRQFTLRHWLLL
T2 sequence (P23977 whole entry): as above
T3 sequence (P31652 whole entry): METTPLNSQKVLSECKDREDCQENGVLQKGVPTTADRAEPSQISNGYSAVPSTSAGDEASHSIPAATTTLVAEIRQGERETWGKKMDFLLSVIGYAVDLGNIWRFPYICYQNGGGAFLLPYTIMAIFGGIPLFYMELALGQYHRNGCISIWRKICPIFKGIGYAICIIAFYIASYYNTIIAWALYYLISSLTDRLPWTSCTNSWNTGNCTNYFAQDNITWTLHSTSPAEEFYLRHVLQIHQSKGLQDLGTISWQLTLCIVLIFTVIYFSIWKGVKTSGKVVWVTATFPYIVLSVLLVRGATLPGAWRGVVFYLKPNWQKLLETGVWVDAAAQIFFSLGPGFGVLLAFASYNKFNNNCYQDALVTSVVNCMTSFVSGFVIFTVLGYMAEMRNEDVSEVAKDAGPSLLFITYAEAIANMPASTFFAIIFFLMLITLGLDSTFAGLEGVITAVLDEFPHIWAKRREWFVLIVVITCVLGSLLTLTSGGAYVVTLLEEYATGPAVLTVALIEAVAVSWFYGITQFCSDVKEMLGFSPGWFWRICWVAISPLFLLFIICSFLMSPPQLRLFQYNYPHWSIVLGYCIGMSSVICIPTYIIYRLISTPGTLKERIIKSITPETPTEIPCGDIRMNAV

Row | Compound | D-Amphetamine Emax (% ± SD) [1, 8] | Apparent Kc [1] | IC50 [3, 9] | Emax ([3]; read-out: DAT Uptake Emax) | Emax [3, 10] | Emax [5, 11] | IC50 [5, 12] | NET Uptake Emax ([7]; mean ± S.D., n = 3) | NE Uptake Emax (% I ± SD) [7, 13] | IC50 [7, 14] | IC50 [7, 15] | Kb [1] | EC50 [4] | IC50 [3, 16] | Emax [4, 17] | also measured
1 | c1ccc(C(CNc2nc(-c3ccc4nccn4c3)nc3ccccc23)c2ccccc2)cc1 [compound 55, N-(2,2-Diphenylethyl)-2-(Imidazo[1,2-a]Pyridin-6-yl)Quinazolin-4-Amine] | 103 ± 3% | -368 nM | 2 nM | 68 ± 2% | 68% | 52 ± 2% | 23 ± 5 nM | 72 ± 4% | 72 ± 4 % I | 52 ± 15 nM | 52 ± 15 nM | – | – | – | – | effect on the d-amphetamine Emax value, in words ([1]; d-amphetamine-induced DAT-mediated [^3H]MPP^+ release, blocking concentration ˜25 times IC50 for DAT uptake inhibition): decreased; Apparent Kc [2]: -239 nM; IC50 ([3]; IC50 for inhibition of DAT uptake, [^3H]DA uptake, text of b784): 2.3 ± 0.4 nM; efficacy of [^3H]DA (DAT) uptake inhibition, in words ([3]; partial versus full inhibition): partial inhibitor; Emax for DAT Uptake Inhibition ([3]; value as listed in Table 10): 68%; DAT Binding εmax ([4]; inhibition of [3H]WIN35428 binding, mean ± S.D., n = 3): Inactive; efficacy of SERT uptake inhibition, in words ([5]; partial versus full inhibition): partial inhibitor; Emax at 0.001 µM ([6]; [^3H]DA accumulation, 1 nM compound 55, read-out: Inhibition of the Emax value (%)): 11%; Emax at 0.004 µM ([6]; [^3H]DA accumulation, 4 nM compound 55, read-out: Inhibition of the Emax value (%)): 29%; Emax at 0.008 µM ([6]; [^3H]DA accumulation, 8 nM compound 55, read-out: Inhibition of the Emax value (%)): 42%; Emax at 0.025 µM ([6]; [^3H]DA accumulation, 25 nM compound 55, read-out: Inhibition of the Emax value (%)): 57%; Emax ([6]; dose-dependent decrease of maximum [^3H]DA accumulation, read-out: Emax of decrease of the Emax of [^3H]DA accumulation): 69 ± 1%; Emax ([6]; maximum level of [^3H]DA accumulation, 1 nM compound 55): 89 ± 4; Emax ([6]; maximum level of [^3H]DA accumulation, 4 nM compound 55): 71 ± 2; Emax ([6]; maximum level of [^3H]DA accumulation, 8 nM compound 55): 58 ± 2; Emax ([6]; maximum level of [^3H]DA accumulation, 25 nM compound 55): 43 ± 3; effect on the Emax of [^3H]DA accumulation, in words ([6]; time course of [^3H]DA uptake): decreased the Emax in a dose-dependent manner; efficacy of NET uptake inhibition, in words ([7]; partial versus full inhibition): partial inhibitor
2 | CN(C)c1ncc(-c2nc(NC(c3ccccc3)c3ccccc3)c3ccccc3n2)cn1 [compound 12, N-Benzhydryl-2-(2-(dimethylamino)pyrimidin-5-yl)quinazolin-4-amine] | – | – | – | – | – | – | – | – | 64 ± 10 % I | 1740 ± 1150 nM | – | 7050 nM | 1.8 ± 0.4 µM | – | – | D-Amphetamine Emax (% ± SD) ([1]; Emax of D-amphetamine for [^3H]MPP^+ release in presence of 5000 nM test compound): 98 ± 1%; IC50 ([3]; DA Uptake EC50 (nM ± SD), rat caudate synaptosomes, 5 nM [^3H]dopamine, 15 min, 25° C., three experiments pooled): 174 ± 58 nM; Emax ([3]; read-out: DA Uptake Emax (% I ± SD)): 66 ± 4%; Emax ([4]; read-out: WIN Binding Emax (% I ± SD)): 71 ± 4%; IC50 ([5]; rat brain synaptosomes, 5 nM [^3H]serotonin, 30 min, 25° C., read-out: 5HT Uptake EC50 (nM ± SD)): 699 ± 164 nM; Emax ([5]; rat brain synaptosomes, 5 nM [^3H]serotonin, maximal inhibition from dose-response fit, read-out: 5HT Uptake Emax (% I ± SD)): 48 ± 3%
3 | Cc1cc2nccn2cc1-c1nc(NCC(O)(c2ccccc2)c2ccccc2)c2ccccc2n1 [compound 152, 2-((2-(7-Methylimidazo[1,2-A]Pyridin-6-yl)Quinazolin-4-yl)Amino)-1,1-Diphenylethanol] | 104 ± 4% | 46 nM | 2 nM | 69 ± 1% | – | – | 3 ± 0.6 nM | 69 ± 4% | – | – | 16 ± 5 nM | – | – | 1.7 ± 0.1 nM | 52 ± 8% | –
4 | CN(C)c1ccc(-c2nc(NCC(c3ccccc3)c3ccccc3)c3ccccc3n2)cn1 [compound 69, 2-(6-(Dimethylamino)Pyridin-3-yl)-N-(2,2-Diphenylethyl)Quinazolin-4-Amine] | – | 912 nM | 7 nM | 63 ± 3% | 63% | 51 ± 2% | 42 ± 12 nM | 71 ± 6% | 71 ± 6 % I | 147 ± 63 nM | 147 ± 63 nM | 912 nM | 1.2 ± 0.2 µM | 7.3 ± 2.2 nM | 83 ± 3% | D-Amphetamine Emax (% ± SD) ([1]; Emax of D-amphetamine for [^3H]MPP^+ release in presence of 250 nM test compound): 99 ± 2%
